# Read-outs that look alike come from different tables or passages of the source.
# Target: T1, Apurinic/apyrimidinic endonuclease 1 (APE1) (Homo sapiens, UniProt P27695)
# T1 construct: gene APEX1
# Assay: fluorescent HCR/G-quadruplex-ThT assay of AP-site cleavage by purchased APE1; also in cell lysates
# Format: biochemical
# T1 sequence (P27695 2-318): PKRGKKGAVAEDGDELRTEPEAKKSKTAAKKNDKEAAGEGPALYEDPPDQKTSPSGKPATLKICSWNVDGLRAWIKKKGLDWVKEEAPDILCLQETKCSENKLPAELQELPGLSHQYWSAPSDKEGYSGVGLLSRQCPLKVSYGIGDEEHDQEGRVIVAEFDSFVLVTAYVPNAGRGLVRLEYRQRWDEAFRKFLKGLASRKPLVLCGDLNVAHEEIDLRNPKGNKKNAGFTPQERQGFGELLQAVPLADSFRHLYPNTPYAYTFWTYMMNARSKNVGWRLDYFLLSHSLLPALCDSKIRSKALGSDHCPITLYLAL
Structure (SMILES),IC50 [µM],IC50 (read-out: IC50) [µM]
"O=C(O)c1cc2cccc([N+](=O)[O-])c2[nH]1 [NCA, 7-nitroindole-2-carboxylic acid]",~3.5,
CO/N=C(\C(=O)N[C@@H]1C(=O)N2C(C(=O)O)=C(COC(C)=O)CS[C@H]12)c1csc(N)n1 [cefotaxime sodium],,~75
